Data set [1] deals with T1, Aurora kinase B (Homo sapiens, UniProt Q96GD4). Briefly: Inhibition of Aurora B in human HCT116 cells assessed as reduction in phosphorylation of Histone H3 at Ser10 residue incubated for 1 hr by Hoechst 33342 dye-based immunofluorescence microscopic method. Format: cell-based.
Data set [2] can be described thus: AUC (0 to 6 hrs) in rat at 10 mg/kg, po. The arrangement: time < 6 hr, dose 10 mg/kg, route oral. Conditions: in vivo. Type of data set: ADME, organism-based.
Another data set deals with T2, Aurora kinase A (Homo sapiens, UniProt O14965).
T2 sequence (O14965 whole entry): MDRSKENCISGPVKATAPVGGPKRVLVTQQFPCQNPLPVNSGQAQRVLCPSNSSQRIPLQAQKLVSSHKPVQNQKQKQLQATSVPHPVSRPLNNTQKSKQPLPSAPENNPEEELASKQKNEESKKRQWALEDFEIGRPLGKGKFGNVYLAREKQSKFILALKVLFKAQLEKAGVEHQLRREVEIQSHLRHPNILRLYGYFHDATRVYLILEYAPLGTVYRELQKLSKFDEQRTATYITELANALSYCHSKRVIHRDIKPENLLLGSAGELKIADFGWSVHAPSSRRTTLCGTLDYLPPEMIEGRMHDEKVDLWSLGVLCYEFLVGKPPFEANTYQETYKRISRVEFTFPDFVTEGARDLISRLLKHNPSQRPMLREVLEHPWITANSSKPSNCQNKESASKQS
Briefly: Inhibition of Aurora A (unknown origin) using Tamra-PKAtide as substrate by fluorescence polarization assay. (Fluorescence polarisation rises when a labelled molecule tumbles more slowly, as on binding a larger partner.)

The target in data set [3] is T1, Aurora kinase B. Put plainly: Inhibition of Aurora B (unknown origin) using Tamra-PKAtide as substrate by fluorescence polarization assay.
The nature of data set [4]: Apparent permeability from apical to basolateral side in human intestinal Caco2 cells. Type of data set: ADME, cell-based. Conditions: Caco-2. (Caco-2 monolayers are a common model of the intestinal barrier.)
Data set [5] in a line: AUC (0 to 24 hrs) in rat at 30 mg/kg, po. More on the design: time < 24 hr, dose 30 mg/kg, route oral. Conditions: in vivo. Type of data set: ADME, organism-based.

This is an account of results in ChEMBL document CHEMBL4219148, “Discovery of a highly potent orally bioavailable imidazo-[1, 2-a]pyrazine Aurora inhibitor” (Bioorg Med Chem Lett, 2018).

T1 sequence (Q96GD4 whole entry): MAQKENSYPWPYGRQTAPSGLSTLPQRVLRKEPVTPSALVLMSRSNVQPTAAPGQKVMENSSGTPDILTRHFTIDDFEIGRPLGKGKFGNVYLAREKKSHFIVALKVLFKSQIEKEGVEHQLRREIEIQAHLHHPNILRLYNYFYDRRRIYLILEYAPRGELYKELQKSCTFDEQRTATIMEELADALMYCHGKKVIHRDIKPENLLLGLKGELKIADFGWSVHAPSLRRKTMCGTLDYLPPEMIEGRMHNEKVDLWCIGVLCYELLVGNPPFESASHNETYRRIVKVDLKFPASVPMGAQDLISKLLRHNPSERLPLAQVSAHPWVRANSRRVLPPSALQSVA

For `Cc1cn2c(-c3cn[nH]c3)cnc2c(Nc2cc(Cc3cccc(F)n3)ns2)n1`, the EC50 on Aurora kinase B [1] is 100 nM. In addition, the AUC(0-t) at 6 h in data set [2] stood at 7.3 µM·h. For the same compound, the IC50 at Aurora kinase A is less than 4 nM; at Aurora kinase B [3], less than 13 nM.

Take `Cc1cn2c(-c3cn[nH]c3)cnc2c(Nc2cc(Cc3cnccn3)ns2)n1`: the concentration for a half-maximal effect (EC50) at Aurora kinase B [1] stood at 208 nM. This compound registered an AUC(0-t) at 6 h in data set [2] of 0.15 µM·h. The results for the IC50 against Aurora kinase A and against Aurora kinase B [3] were less than 4 nM and less than 13 nM, respectively. In data set [4], the Papp A→B was 4.3 ×10⁻⁶ cm/s.

With `Cc1ccc(Cc2cc(Nc3nc(C)cn4c(-c5cn[nH]c5)cnc34)sn2)nc1`, the EC50 at Aurora kinase B [1] turned out to be 475 nM. This compound had an AUC(0-t) at 6 h in data set [2] of 3.4 µM·h. For the same compound, the IC50 against Aurora kinase A is less than 4 nM; against Aurora kinase B [3], less than 13 nM.

Consider `Cc1cn2c(-c3cn[nH]c3)cnc2c(Nc2cc(Cc3ncccc3F)ns2)n1`, for which the EC50 at Aurora kinase B [1] is 182 nM. In data set [2], the AUC(0-t) at 6 h is 1.4 µM·h. The IC50 was less than 4 nM against Aurora kinase A and less than 13 nM on Aurora kinase B [3].

`Cc1cn2c(-c3cn[nH]c3)cnc2c(Nc2cc(Cc3ccc(F)cn3)ns2)n1`: the EC50 at Aurora kinase B [1] worked out at 486 nM. This compound showed an AUC(0-t) at 6 h in data set [2] of 5.5 µM·h. The figures for the IC50 against Aurora kinase A and on Aurora kinase B [3] were less than 4 nM and less than 13 nM, respectively.

For `Cc1cn2c(-c3cn[nH]c3)cnc2c(Nc2cc(Cc3cccnc3)ns2)n1`, at Aurora kinase B [1], the EC50 is greater than 1000 nM. Also, the figures for the IC50 against Aurora kinase A and at Aurora kinase B [3] were less than 4 nM and less than 13 nM, respectively.

In the case of `Cc1cn2c(-c3cn[nH]c3)cnc2c(Nc2cc(Cc3ncccc3C)ns2)n1`, on Aurora kinase B [1], the EC50 is 250 nM. This compound returned an AUC(0-t) at 6 h in data set [2] of 1.6 µM·h. Besides, the IC50 at Aurora kinase A is less than 4 nM; at Aurora kinase B [3], less than 13 nM.

Consider `Cc1ccnc(Cc2cc(Nc3nc(C)cn4c(-c5cn[nH]c5)cnc34)sn2)c1`, for which the EC50 on Aurora kinase B [1] was found to be 376 nM. Besides, the AUC(0-t) at 6 h in data set [2] stood at 4.6 µM·h. In addition, the IC50 is less than 4 nM at Aurora kinase A and less than 13 nM at Aurora kinase B [3].

`Cc1cn2c(-c3cn[nH]c3)cnc2c(Nc2cc(Cc3cccc(C(=O)N4CCCCC4)n3)ns2)n1`: the EC50 on Aurora kinase B [1] came out at 245 nM. In addition, in data set [2], the AUC(0-t) at 6 h is 0.1 µM·h. In addition, the IC50 was less than 4 nM against Aurora kinase A and less than 13 nM against Aurora kinase B [3].

For the compound `COc1cccc(Cc2cc(Nc3nc(C)cn4c(-c5cn[nH]c5)cnc34)sn2)n1`, at Aurora kinase B [1], the EC50 amounted to 356 nM. In data set [2], the AUC(0-t) at 6 h was found to be 5.5 µM·h. Besides, the figures for the IC50 against Aurora kinase A and at Aurora kinase B [3] were less than 4 nM and less than 13 nM, respectively.

Consider `Cc1cn2c(-c3cn[nH]c3)cnc2c(Nc2cc(Cc3ccncc3)ns2)n1`, for which the EC50 at Aurora kinase B [1] was greater than 1000 nM. The values for the IC50 against Aurora kinase A and against Aurora kinase B [3] were less than 4 nM and less than 13 nM, respectively.

With `Cc1cn2c(-c3cn[nH]c3)cnc2c(Nc2cc(Cc3nccs3)ns2)n1`, the EC50 on Aurora kinase B [1] came out at 170 nM. Also, in data set [2], the AUC(0-t) at 6 h stood at 3.9 µM·h. Further, the IC50 against Aurora kinase A is less than 4 nM; on Aurora kinase B [3], less than 13 nM.

`Cc1cn2c(-c3cn[nH]c3)cnc2c(Nc2cc(Cc3cccc(CN4CCCCC4)n3)ns2)n1`: at Aurora kinase B [1], the concentration giving a half-maximal response (EC50) came to 289 nM. The IC50 on Aurora kinase A was less than 4 nM; on Aurora kinase B [3] it was less than 13 nM.

With `Cc1cn2c(-c3cn[nH]c3)cnc2c(Nc2cc(Cc3cccc(CO)n3)ns2)n1`, the EC50 on Aurora kinase B [1] is 559 nM. In addition, the results for the IC50 at Aurora kinase A and against Aurora kinase B [3] were less than 4 nM and less than 13 nM, respectively.

Regarding `Cc1cn2c(-c3cn[nH]c3)cnc2c(Nc2cc(Cn3cccc(C)c3=O)ns2)n1`, the EC50 on Aurora kinase B [1] is 487 nM. In addition, the IC50 against Aurora kinase A was less than 4 nM; against Aurora kinase B [3], less than 13 nM.

As to `Cc1cn2c(-c3cn[nH]c3)cnc2c(Nc2cc(Cn3ccnc3)ns2)n1`, at Aurora kinase B [1], the EC50 was 370 nM. For the same compound, the IC50 on Aurora kinase A is less than 4 nM; on Aurora kinase B [3], less than 13 nM.

With `Cc1cccc(Cc2cc(Nc3nc(C)cn4c(-c5cn[nH]c5)cnc34)sn2)n1`, the EC50 on Aurora kinase B [1] amounted to 88 nM. Moreover, in data set [2], the AUC(0-t) at 6 h came out at 7.7 µM·h. Further, the IC50 against Aurora kinase A is less than 4 nM; against Aurora kinase B [3], less than 13 nM.

As for `Cc1cn2c(-c3cn[nH]c3)cnc2c(Nc2cc(Cn3cccn3)ns2)n1`, on Aurora kinase B [1], the EC50 turned out to be 184 nM. The IC50 is less than 4 nM against Aurora kinase A and less than 13 nM at Aurora kinase B [3].

On to `Cc1cn2c(-c3cn[nH]c3)cnc2c(Nc2cc(Cn3cccc3)ns2)n1`, for which the EC50 on Aurora kinase B [1] came out at 530 nM. The figures for the IC50 against Aurora kinase A and at Aurora kinase B [3] were less than 4 nM and less than 13 nM, respectively.

Regarding `Cc1cn2c(-c3cn[nH]c3)cnc2c(Nc2cc(Cc3ncccn3)ns2)n1`, the EC50 on Aurora kinase B [1] was 203 nM. Moreover, the AUC(0-t) at 6 h in data set [2] is 1.8 µM·h. The IC50 is less than 4 nM at Aurora kinase A and less than 13 nM on Aurora kinase B [3].

In the case of `Cc1cn2c(-c3cn[nH]c3)cnc2c(Nc2cc(C(NC(C)(C)C)c3ccccn3)ns2)n1` (racemic), the EC50 on Aurora kinase B [1] is less than 16 nM. Moreover, the AUC(0-t) at 6 h in data set [2] turned out to be 1.6 µM·h. Besides, the IC50 is less than 4 nM against Aurora kinase A and less than 13 nM at Aurora kinase B [3].

Consider `Cc1cn2c(-c3cn[nH]c3)cnc2c(Nc2cc(C(c3ccccn3)N3CCC(F)CC3)ns2)n1` (racemic), for which the concentration for a half-maximal effect (EC50) at Aurora kinase B [1] amounted to 83 nM. For the same compound, the AUC(0-t) at 6 h in data set [2] was 0.45 µM·h. Besides, the results for the IC50 on Aurora kinase A and against Aurora kinase B [3] were less than 4 nM and less than 13 nM, respectively.

Turning to `Cc1cn2c(-c3cn[nH]c3)cnc2c(Nc2cc(C(c3ccccn3)N3CCCC3)ns2)n1` (racemic), the EC50 on Aurora kinase B [1] is less than 16 nM. Further, in data set [2], the AUC(0-t) at 6 h was determined as 0.02 µM·h. The IC50 against Aurora kinase A was less than 4 nM; at Aurora kinase B [3], less than 13 nM.

As to `Cc1cn2c(-c3cn[nH]c3)cnc2c(Nc2cc(C(NC3CCCC3)c3ccccn3)ns2)n1` (racemic), the EC50 on Aurora kinase B [1] was less than 16 nM. Also, the AUC(0-t) at 6 h in data set [2] came to 0.67 µM·h. Further, the IC50 was less than 4 nM against Aurora kinase A and less than 13 nM on Aurora kinase B [3].

With `Cc1cn2c(-c3cn[nH]c3)cnc2c(Nc2cc(C(c3ccccn3)N3CCCCC3)ns2)n1` (racemic), the EC50 on Aurora kinase B [1] was less than 16 nM. The compound further registered an AUC(0-t) at 6 h in data set [2] of 0.21 µM·h. In addition, the figures for the IC50 against Aurora kinase A and against Aurora kinase B [3] were less than 4 nM and less than 13 nM, respectively.

Turning to `Cc1cn2c(-c3cn[nH]c3)cnc2c(Nc2cc(C(NC(C)(C)C)c3ccccn3)ns2)n1` (single isomer, unassigned; (-)), at Aurora kinase B [1], the EC50 stood at 50 nM. Also, the IC50 was no more than 4 nM on Aurora kinase A and no more than 13 nM on Aurora kinase B [3]. Moreover, the AUC(0-t) at 24 h in data set [5] stood at 39 µM·h.

What is called EC50 is the concentration giving half of the maximal effect. Broadly, the AUC(0-t) is the area under the concentration-time curve up to a stated or last time point. A low value points to low exposure. As usually defined, the IC50 is the midpoint of a concentration-inhibition curve. High values mean a need for much substance, low ones inhibition by little substance. The Papp A→B is the apparent permeability from the apical to the basolateral side of a cell layer.
